Measured values from patent US6710168B1, “Glycopeptide antibiotics, combinatorial libraries of glycopeptide antibiotics and methods of producing same” (The Trustees of the University of Princeton, priority 1999, dated 2004).
Converted amounts (≈) assume the structure as drawn.

What was measured:
Format in all cases: cell-based
[1] = tested on: Enterococcus faecium CL5137, VanA; assay: MIC susceptibility test; conditions: Enterococcus faecium CL5137, VanA; read-out: MIC CL5137
[2] = tested on: gentamicin, streptmycin, vancomycin resistant Enterococcus faecalis (ATCC 51299); assay: microbe, parasite or virus in culture; conditions: for MIC: Enterococcus faecalis, ATCC51299, read-out: MIC VREF; for MIC VREF: Enterococcus faecalis ATCC51299, vancomycin resistance
Experimental: (§1) Evaluation of vancomycin analogs is performed using in vitro susceptibility tests and a time-kill assay. [NCCL Standard, 1993] In susceptibility tests, five strains of bacteria, two of the most important: Staphylococcus aureus and Enterococcus faecalis (both susceptible and resistant strains), and Bacillus cereus are chosen and bacteria viability remaining in each well is evaluated using a colorimetric assay based on the tetrazolium salt 3-(4,5-dimethyl-2-thiazolyl)-2,5-diphenyl-2H tetrazolium bromide (MTT) and minimum inhibitory concentration (MIC) values are determined as μg/mL. [Mosmann, T. (1983); Damour, O., et al. (1992); Mikami, Y., et al. (1994)] This assay gives susceptibility information quickly, efficiently, and clearly.
(§2) All strains [Bacillus cereus (ATCC® 11778), Staphylococcus aureus (ATCC® 29213), Methicillin resistant Staphylococcus aureus (ATCC® 33591), Enterococcus faecalis (ATCC® 29212), and gentamicin, streptmycin, vancomycin resistant Enterococcus faecalis (ATCC® 51299), are purchased from REMEL (Lenexa, Kans.).
(§3) MICs are determined by the microdilution method using 96-well microplates. Samples are suspended with Cation Adjusted (20 to 25 mg of Ca^2+/mL and 10 to […] of Mg^2+) Mueller-Hinton broth (Difco Laboratories, Detroit, Mich.) and are two-fold diluted from 5 μg/mL to […] on microplates (12 step dilution). To each well, which contained 100 μL of cell suspension (10^6 CFU/mL), 100 μL of antibiotic solution is added and the plates are incubated at 37° C. for 24 h. 50 μL of MTT solution (1 mg/mL) is added to each well, then the plates are incubated under the same conditions (incubation time; 30 min for Bacillus cereus, Staphylococcus aureus, and Methicillin resistant Staphylococcus aureus; 2 hours for Enterococcus faecalis and Gentamicin, Streptmycin, Vancomycin Enterococcus faecalis). MTT is a yellow tetrazolium salt that is reduced by mitochondrial enzymes in viable cells to an insoluble blue formazan product. MIC values are evaluated by observing the lowest drug concentration to inhibit bacteria growth.

[3] = tested on: Enterococcus faecalis CL5244, VanB; assay: MIC susceptibility test; conditions: Enterococcus faecalis CL5244, VanB; read-out: MIC CL5244
Experimental: as §1, §3

[4] = tested on: Bacillus cereus (ATCC 11778); assay: MIC susceptibility test, microdilution with MTT readout; conditions: for MIC: Bacillus cereus, ATCC11778, read-out: MIC BC; for MIC BC: Bacillus ceres ATCC11778
Experimental: as §1, §2, §3

[5] = tested on: Staphylococcus aureus (ATCC 29213); assay: as above; conditions: Staphylococcus aureus ATCC29213; for MIC: read-out: MIC SA
Experimental: as §1, §2, §3

[6] = tested on: Methicillin resistant Staphylococcus aureus (ATCC 33591); assay: as above; conditions: Staphylococcus aureus ATCC3359, Methicillin resistance; for MIC: ATCC 3359 / ATCC 33591 / MRSA, read-out: MIC MRSA
Experimental: as §1, §2, §3

[7] = tested on: Enterococcus faecalis (ATCC 29212); assay: as above; conditions: Enterococcus faecalis ATCC29212; for MIC: read-out: MIC EF
Experimental: as §1, §2, §3

Row | Structure (SMILES) | MIC [1] | MIC [2] | MIC [3] | MIC [4] | MIC [5] | MIC [6] | MIC [7] | MIC VREF [2] | MIC BC [4] | MIC SA [5] | MIC MRSA [6] | MIC EF [7]
1 | CN[C@@H](CC(C)C)C(=O)N[C@H]1C(=O)N[C@@H](CC(N)=O)C(=O)N[C@H]2C(=O)NC3C(=O)N[C@H](C(=O)N[C@@H](C(=O)O)c4cc(O)cc(O)c4-c4cc3ccc4O)[C@H](O)c3ccc(c(Cl)c3)Oc3cc2cc(c3OC2OC(CNCc3cc(Cl)ccc3O)C(O)C(O)C2OC2CC(C)(N)C(O)C(C)O2)Oc2ccc(cc2Cl)[C@H]1O (stereo partly drawn) [XXXIX, Glucose-C6-5-chloro-2-hydroxy-benzylamine Vancomycin] | > 50 µg/mL | > 5 µg/mL | 25 µg/mL (≈ 15.7 µM) | 1.3 µg/mL (≈ 0.818 µM) | 1.3 µg/mL (≈ 0.818 µM) | 1.3 µg/mL (≈ 0.818 µM) | 2.5 µg/mL (≈ 1.57 µM) |  |  |  |  | 
2 | CN[C@@H](CC(C)C)C(=O)N[C@H]1C(=O)N[C@@H](CC(N)=O)C(=O)N[C@H]2C(=O)NC3C(=O)N[C@H](C(=O)N[C@@H](C(=O)O)c4cc(O)cc(O)c4-c4cc3ccc4O)[C@H](O)c3ccc(c(Cl)c3)Oc3cc2cc(c3OC2OC(CSc3ccc(Br)cc3)C(O)C(O)C2OC2CC(C)(N)C(O)C(C)O2)Oc2ccc(cc2Cl)[C@H]1O (stereo partly drawn) [LIX, Glucose-C6-1-thio-4-bromobenzene Vancomycin] | > 50 µg/mL | 0.32 µg/mL (≈ 0.197 µM) | 6.3 µg/mL (≈ 3.89 µM) | 1.3 µg/mL (≈ 0.802 µM) | 0.63 µg/mL (≈ 0.389 µM) | 1 µg/mL (≈ 0.617 µM) | 1 µg/mL (≈ 0.617 µM) |  |  |  |  | 
3 | CN[C@@H](CC(C)C)C(=O)N[C@H]1C(=O)N[C@@H](CC(N)=O)C(=O)N[C@H]2C(=O)NC3C(=O)N[C@H](C(=O)N[C@@H](C(=O)O)c4cc(O)cc(O)c4-c4cc3ccc4O)[C@H](O)c3ccc(c(Cl)c3)Oc3cc2cc(c3OC2OC(CSc3nccc(N)n3)C(O)C(O)C2OC2CC(C)(N)C(O)C(C)O2)Oc2ccc(cc2Cl)[C@H]1O (stereo partly drawn) [LXI, Glucose-C6-2-thio-4-aminopyrimidine Vancomycin] | > 50 µg/mL | 0.63 µg/mL (≈ 0.404 µM) | 3.2 µg/mL (≈ 2.05 µM) | 0.63 µg/mL (≈ 0.404 µM) | 0.63 µg/mL (≈ 0.404 µM) | 1.3 µg/mL (≈ 0.834 µM) | 0.63 µg/mL (≈ 0.404 µM) |  |  |  |  | 
4 | CNC(CC(C)C)C(=O)NC1C(=O)NC(CC(N)=O)C(=O)NC2C(=O)NC3C(=O)NC(C(=O)NC(C(=O)O)c4cc(O)cc(O)c4-c4cc3ccc4O)C(O)c3ccc(c(Cl)c3)Oc3cc2cc(c3OC2OC(CNC(=O)c3cccs3)C(O)C(O)C2OC2CC(C)(N)C(O)C(C)O2)Oc2ccc(cc2Cl)C1O (stereo not drawn) [XXXIII, Glucose-C6-N-(thiophene-2-carboxamide) Vancomycin] |  |  |  |  |  |  |  | 5.0 µg/mL (≈ 3.21 µM) | 1.3 µg/mL (≈ 0.834 µM) | 1.3 µg/mL (≈ 0.834 µM) | 2.5 µg/mL (≈ 1.6 µM) | 1.3 µg/mL (≈ 0.834 µM)
5 | CN[C@@H](CC(C)C)C(=O)N[C@H]1C(=O)N[C@@H](CC(N)=O)C(=O)N[C@H]2C(=O)NC3C(=O)N[C@H](C(=O)N[C@@H](C(=O)O)c4cc(O)cc(O)c4-c4cc3ccc4O)[C@H](O)c3ccc(c(Cl)c3)Oc3cc2cc(c3OC2OC(COS(=O)(=O)c3c(C)cc(C)cc3C)C(O)C(O)C2OC2CC(C)(NCc3ccc(-c4ccc(Cl)cc4)cc3)C(O)C(C)O2)Oc2ccc(cc2Cl)[C@H]1O (stereo partly drawn) [XLII, N-4-(4-Chlorophenyl)benzylvancosamine-glucose-C6-2-mesitylenesulfonated Vancomycin] | 6.3 µg/mL (≈ 3.44 µM) | 1.9 µg/mL (≈ 1.04 µM) | 0.8 µg/mL (≈ 0.437 µM) | 1.9 µg/mL (≈ 1.04 µM) | > 5 µg/mL | > 5 µg/mL | 1 µg/mL (≈ 0.546 µM) |  |  |  |  | 
6 | CN[C@H](CC(C)C)C(=O)N[C@H]1C(=O)N[C@@H](CC(N)=O)C(=O)N[C@H]2C(=O)N[C@H]3C(=O)N[C@H](C(=O)N[C@H](C(=O)O)c4cc(O)cc(O)c4-c4cc3ccc4O)[C@H](O)c3ccc(c(Cl)c3)Oc3cc2cc(c3OC2OC(CSc3nc(N)n[nH]3)C(O)C(O)C2OC2CC(C)(NCc3ccc(-c4ccc(Cl)cc4)cc3)C(O)C(C)O2)Oc2ccc(cc2Cl)[C@H]1O (stereo partly drawn) [LXXIII, Vancosamine-N-4-(4-chlorophenyl)benzyl, Glucose-C6-S-3-amino-5-mercapto-1,2,4-triazole Vancomycin] | 3.2 µg/mL (≈ 1.83 µM) | 0.08 µg/mL (≈ 0.0458 µM) | 0.2 µg/mL (≈ 0.114 µM) | 0.48 µg/mL (≈ 0.275 µM) | 1.9 µg/mL (≈ 1.09 µM) | 1 µg/mL (≈ 0.572 µM) | 0.16 µg/mL (≈ 0.0915 µM) |  |  |  |  | 
7 | CNC(CC(C)C)C(=O)NC1C(=O)NC(CC(N)=O)C(=O)NC2C(=O)NC3C(=O)NC(C(=O)NC(C(=O)O)c4cc(O)cc(O)c4-c4cc3ccc4O)C(O)c3ccc(c(Cl)c3)Oc3cc2cc(c3OC2OC(CNC(=O)CN)C(O)C(O)C2OC2CC(C)(N)C(O)C(C)O2)Oc2ccc(cc2Cl)C1O (stereo not drawn) [XXXIV, Glucose-C6-N-(glycine-carboxamide) Vancomycin] |  |  |  |  |  |  |  | 5.0< μg/mL | 5.0 µg/mL (≈ 3.32 µM) | 1.9 µg/mL (≈ 1.26 µM) | 2.5 µg/mL (≈ 1.66 µM) | 2.5 µg/mL (≈ 1.66 µM)
8 | CCCCCCCCCCCCCC(=O)NCC1OC(Oc2c3cc4cc2Oc2ccc(cc2Cl)C(O)C2NC(=O)C(NC(=O)C4NC(=O)C(CC(N)=O)NC(=O)C(NC(=O)C(CC(C)C)NC)C(O)c4ccc(c(Cl)c4)O3)c3ccc(O)c(c3)-c3c(O)cc(O)cc3C(C(=O)O)NC2=O)C(OC2CC(C)(N)C(O)C(C)O2)C(O)C1O (stereo not drawn) [XXXV, Glucose-C6-N-myristoyl Vancomycin] |  |  |  |  |  |  |  | 0.16 µg/mL (≈ 0.0965 µM) | 3.8 µg/mL (≈ 2.29 µM) | 2.5 µg/mL (≈ 1.51 µM) | 1.3 µg/mL (≈ 0.784 µM) | 0.015 µg/mL (≈ 0.00904 µM)
9 | CNC(CC(C)C)C(=O)NC1C(=O)NC(CC(N)=O)C(=O)NC2C(=O)NC3C(=O)NC(C(=O)NC(C(=O)O)c4cc(O)cc(O)c4-c4cc3ccc4O)C(O)c3ccc(c(Cl)c3)Oc3cc2cc(c3OC2OC(CNC(=O)c3ccccc3I)C(O)C(O)C2OC2CC(C)(N)C(O)C(C)O2)Oc2ccc(cc2Cl)C1O (stereo not drawn) [XXXVI, Glucose-C6-N-2-iodobenzoyl Vancomycin] |  |  |  |  |  |  |  | 2.5 µg/mL (≈ 1.49 µM) | 1.3 µg/mL (≈ 0.775 µM) | 1.3 µg/mL (≈ 0.775 µM) | 2.5 µg/mL (≈ 1.49 µM) | 1.3 µg/mL (≈ 0.775 µM)
10 | CNC(CC(C)C)C(=O)NC1C(=O)NC(CC(N)=O)C(=O)NC2C(=O)NC3C(=O)NC(C(=O)NC(C(=O)O)c4cc(O)cc(O)c4-c4cc3ccc4O)C(O)c3ccc(c(Cl)c3)Oc3cc2cc(c3OC2OC(CSCC(=O)O)C(O)C(O)C2OC2CC(C)(N)C(O)C(C)O2)Oc2ccc(cc2Cl)C1O (stereo not drawn) [LXXI, Glucose-C6-thioacetato Vancomycin] |  |  |  |  |  |  |  | 5.0< μg/mL | 5.0< μg/mL | 5.0 µg/mL (≈ 3.28 µM) | 5.0< μg/mL | 5.0< μg/mL
11 | CNC(CC(C)C)C(=O)NC1C(=O)NC(CC(N)=O)C(=O)NC2C(=O)NC3C(=O)NC(C(=O)NC(C(=O)O)c4cc(O)cc(O)c4-c4cc3ccc4O)C(O)c3ccc(c(Cl)c3)Oc3cc2cc(c3OC2OC(CSC(C)C)C(O)C(O)C2OC2CC(C)(N)C(O)C(C)O2)Oc2ccc(cc2Cl)C1O (stereo not drawn) [LIII, Glucose-C6-thiopropianato Vancomycin] |  |  |  |  |  |  |  | 5.0< μg/mL | 1.3 µg/mL (≈ 0.862 µM) | 2.5 µg/mL (≈ 1.66 µM) | 2.5 µg/mL (≈ 1.66 µM) | 2.5 µg/mL (≈ 1.66 µM)
12 | CNC(=S)NCC1OC(Oc2c3cc4cc2Oc2ccc(cc2Cl)C(O)C2NC(=O)C(NC(=O)C4NC(=O)C(CC(N)=O)NC(=O)C(NC(=O)C(CC(C)C)NC)C(O)c4ccc(c(Cl)c4)O3)c3ccc(O)c(c3)-c3c(O)cc(O)cc3C(C(=O)O)NC2=O)C(OC2CC(C)(N)C(O)C(C)O2)C(O)C1O (stereo not drawn) [XXXII, Glucose-C6-N-thiocarbonyl Methylamino Vancomycin] |  |  |  |  |  |  |  | 5.0 µg/mL (≈ 3.29 µM) | 1.9 µg/mL (≈ 1.25 µM) | 1.9 µg/mL (≈ 1.25 µM) | 2.5 µg/mL (≈ 1.64 µM) | 1.3 µg/mL (≈ 0.854 µM)
13 | CCCCCCCCCCNCC1OC(Oc2c3cc4cc2Oc2ccc(cc2Cl)C(O)C2NC(=O)C(NC(=O)C4NC(=O)C(CC(N)=O)NC(=O)C(NC(=O)C(CC(C)C)NC)C(O)c4ccc(c(Cl)c4)O3)c3ccc(O)c(c3)-c3c(O)cc(O)cc3C(C(=O)O)NC2=O)C(OC2CC(C)(N)C(O)C(C)O2)C(O)C1O (stereo not drawn) [XXXI, Glucose-C6-N-decyl Vancomycin] |  |  |  |  |  |  |  | 2.5 µg/mL (≈ 1.57 µM) | 1.3 µg/mL (≈ 0.818 µM) | 1.3 µg/mL (≈ 0.818 µM) | 1.3 µg/mL (≈ 0.818 µM) | 0.32 µg/mL (≈ 0.201 µM)
